Starred links: 1 amine or outer side, 2 acyl side, 3 side chain; linkers in the order of their positions; H or OH if unused. Positions of bridges follow the written chain, without caps; N, C: chain ends. Residues, ends and D or L forms follow the SMILES beside them. Groups on a side chain read outwards from the residue. *: point of attachment. C20 diacid = O=C(O)CCCCCCCCCCCCCCCCCCC(=O)*; γGlu = O=C(O)[C@H](CCC(=O)[*:2])N[*:1]; AEEA = NCCOCCOCC(=O)O
Experiment: Assay (III) ThT fibrillation assay for physical stability
Type: physicochemical
Conditions: for ThT pH 4.0 lag time: pH 4.0, ThT fibrillation assay
Text: Assay (III)—ThT Fibrillation Assays for the Assessment of Physical Stability of Protein formulations Low physical stability of a polypeptide may lead to amyloid fibril formation, which is observed as well-ordered, thread-like macromolecular structures in the sample eventually resulting in gel formation. This has traditionally been measured by visual inspection of the sample. However, that kind of measurement is very subjective and depending on the observer. Therefore, the application of a small molecule indicator probe is much more advantageous. Thioflavin T (ThT) is such a probe and has a distinct fluorescence signature when binding to fibrils [Naiki et al. (1989) Anal. Biochem. 177, 244-249; LeVine (1999) Methods. Enzymol. […], 274-284]. The time course for fibril formation can be described by a sigmoidal curve with the following expression [Nielsen et al. (2001) Biochemistry 40, 6036-6046]: [formula] Here, F is the ThT fluorescence at the time t. The constant t0 is the time needed to reach 50% of maximum fluorescence. […] Few of those intermediates nucleate to form a template onto which further intermediates may assembly and the fibrillation proceeds. The lag-time corresponds to the interval in which the critical mass of nucleus is built up and the apparent rate constant is the rate with which the fibril itself is formed. Sample Preparation Samples were prepared freshly before each assay. Each sample composition is described in each example. The pH of the sample was adjusted to the desired value using appropriate amounts of concentrated NaOH and HClO4 or HCl. Thioflavin T was added to the samples from a stock solution in H2O to a final concentration of 1 μM. Sample aliquots of 200 μl were placed in a 96 well microtiter plate (Packard OptiPlate™-96, white polystyrene). Usually, four or eight replica of each sample (corresponding to one test condition) were placed in one column of wells. The plate was sealed with Scotch Pad (Qiagen). Incubation and Fluorescence Measurement Incubation at given temperature, shaking and measurement of the ThT fluorescence emission were done in a Fluoroskan Ascent FL fluorescence platereader or Varioskan platereader (Thermo Labsystems). The temperature was adjusted to 37° C. The orbital shaking was adjusted to 960 rpm with an amplitude of 1 mm in all the presented data. Fluorescence measurement was done using excitation through a 444 nm filter and measurement of emission through a 485 nm filter. Each run was initiated by incubating the plate at the assay temperature for 10 min. The plate was measured every 20 minutes for a desired period of time. Between each measurement, the plate was shaken and heated as described. Data Handling The measurement points were saved in Microsoft Excel format for further processing and curve drawing and fitting was performed using GraphPad Prism. The background emission from ThT in the absence of fibrils was negligible. The data points are typically a mean of four or eight samples and shown with standard deviation error bars. Only data obtained in the same experiment (i.e. samples on the same plate) are presented in the same graph ensuring a relative measure of fibrillation between experiments. The data set may be fitted to Eq. (1). However, since full sigmodial curves in this case are not always achieved during the measurement time, the degree of fibrillation is expressed as ThT fluorescence tabulated as the mean of the samples and shown with the standard deviation at various time points. Measurement of Initial and Final Concentrations The polypeptide concentration in each of the tested formulations were measured both before application in the ThT fibrillation assay (“Initial”) and after completion of the ThT fibrillation (“After ThT assay”). Concentrations were determined by reverse HPLC methods using a pramlintide standard as a reference. Before measurement after completion 150 μl was collected from each of the replica and transferred to an Eppendorf tube. […]

SMILES | ThT pH 4.0 lag time (physical stability in fibrillogenesis assay) [h] | ThT pH 4.0 lag time [h]
CC[C@H](C)[C@H](NC(=O)[C@@H]1CCCN1C(=O)CNC(=O)[C@H](Cc1ccccc1)NC(=O)[C@H](CC(N)=O)NC(=O)[C@H](CCCCNC(=O)COCCOCCNC(=O)COCCOCCNC(=O)CC[C@H](NC(=O)CCCCCCCCCCCCCCCCCCC(=O)O)C(=O)O)NC(=O)[C@H](CO)NC(=O)[C@H](CO)NC(=O)[C@H](CCCNC(=N)N)NC(=O)[C@@H](NC(=O)[C@H](CC(C)C)NC(=O)[C@H](Cc1ccccc1)NC(=O)[C@H](CCC(=O)O)NC(=O)[C@H](C)NC(=O)[C@H](CC(C)C)NC(=O)[C@H](CCCNC(=N)N)NC(=O)[C@H](CCC(N)=O)NC(=O)[C@@H](NC(=O)[C@H](C)NC(=O)[C@@H]1CSSC[C@H](NC(=O)[C@@H](N)CCCCN)C(=O)N[C@@H](CC(N)=O)C(=O)N[C@@H]([C@@H](C)O)C(=O)N[C@@H](C)C(=O)N[C@@H]([C@@H](C)O)C(=O)N1)[C@@H](C)O)C(C)C)C(=O)N[C@@H](CC(C)C)C(=O)N[C@@H](CO)C(=O)N[C@@H](CCCNC(=N)N)C(=O)N[C@H](C(=O)N[C@@H](CC(N)=O)C(=O)N[C@H](C(=O)NCC(=O)N[C@@H](CO)C(=O)N[C@@H](CCCNC(=N)N)C(=O)N[C@H](C(=O)N[C@@H](Cc1ccc(O)cc1)C(N)=O)[C@@H](C)O)C(C)C)[C@@H](C)O [Example 150, N-epsilon21-[2-(2-{2-[2-(2-{2-[(S)-4-Carboxy-4-(19-carboxyheptadecanoylamino)butyrylamino]ethoxy}ethoxy)acetylamino]ethoxy}ethoxy)acetyl]-[Glu14,Arg18,Lys21,Ser28,Arg29,Arg35]-pramlintide] (H-KCNTATCATQRLAEFLVRSSK([AEEA-AEEA-γGlu-C20 diacid])NFGPILSRTNVGSRTY-NH2; disulfide 2-7) | >45 | –
CC[C@H](C)[C@H](NC(=O)[C@@H]1CCCN1C(=O)CNC(=O)[C@H](Cc1ccccc1)NC(=O)[C@H](CC(N)=O)NC(=O)[C@H](CC(N)=O)NC(=O)[C@H](CO)NC(=O)[C@H](CO)NC(=O)[C@H](Cc1c[nH]cn1)NC(=O)[C@H](Cc1c[nH]cn1)NC(=O)[C@H](CC(C)C)NC(=O)[C@H](Cc1ccccc1)NC(=O)[C@H](CCC(=O)O)NC(=O)[C@H](C)NC(=O)[C@H](CC(C)C)NC(=O)[C@H](CCCNC(=N)N)NC(=O)[C@H](CCC(N)=O)NC(=O)[C@@H](NC(=O)[C@H](C)NC(=O)[C@@H]1CSSC[C@H](NC(=O)[C@H](CCCCN)NC(=O)[C@H](Cc2c[nH]cn2)NC(=O)[C@H](Cc2c[nH]cn2)NC(=O)CC[C@H](NC(=O)CCCCCCCCCCCCCCCCCCC(=O)O)C(=O)O)C(=O)N[C@@H](CC(N)=O)C(=O)N[C@@H]([C@@H](C)O)C(=O)N[C@@H](C)C(=O)N[C@@H]([C@@H](C)O)C(=O)N1)[C@@H](C)O)C(=O)N[C@@H](CC(C)C)C(=O)N1CCC[C@H]1C(=O)N1CCC[C@H]1C(=O)N[C@H](C(=O)N[C@@H](CC(N)=O)C(=O)N[C@H](C(=O)NCC(=O)N[C@@H](CO)C(=O)N[C@@H](Cc1c[nH]cn1)C(=O)N[C@H](C(=O)N[C@@H](Cc1ccc(O)cc1)C(N)=O)[C@@H](C)O)C(C)C)[C@@H](C)O [Example 67, N-alpha-[(S)-4-Carboxy-4-(19-carboxynonadecanoylamino)butyryl]-His-His-[Glu14,His17,His35]-pramlintide] ({C20 diacid-γGlu}-HHKCNTATCATQRLAEFLHHSSNNFGPILPPTNVGSHTY-NH2; disulfide 4-9 (inferred)) | – | >45
CC(C)C[C@H](NC(=O)[C@H](CCCNC(=N)N)NC(=O)[C@H](CCC(N)=O)NC(=O)[C@@H](NC(=O)[C@H](C)NC(=O)[C@@H]1CSSC[C@H](NC(=O)[C@H](CCCCN)NC(=O)CC[C@H](NC(=O)CCCCCCCCCCCCCCCCCCC(=O)O)C(=O)O)C(=O)N[C@@H](CC(N)=O)C(=O)N[C@@H]([C@@H](C)O)C(=O)N[C@@H](C)C(=O)N[C@@H]([C@@H](C)O)C(=O)N1)[C@@H](C)O)C(=O)N[C@@H](C)C(=O)N[C@@H](CCC(=O)O)C(=O)N[C@@H](Cc1ccccc1)C(=O)N[C@@H](CC(C)C)C(=O)N[C@@H](CCCNC(=N)N)C(=O)N[C@@H](Cc1c[nH]cn1)C(=O)N[C@@H](CO)C(=O)N[C@@H](CO)C(=O)N[C@@H](CC(N)=O)C(=O)N[C@@H](CC(N)=O)C(=O)N[C@@H](Cc1ccccc1)C(=O)NCC(=O)N[C@@H](C)C(=O)N1CCC[C@H]1C(=O)N[C@@H](CC(C)C)C(=O)N[C@@H](CO)C(=O)N[C@@H](CO)C(=O)N[C@H](C(=O)N[C@@H](CC(N)=O)C(=O)N[C@H](C(=O)NCC(=O)N[C@@H](CO)C(=O)N[C@@H](Cc1c[nH]cn1)C(=O)N[C@H](C(=O)N[C@@H](Cc1ccc(O)cc1)C(N)=O)[C@@H](C)O)C(C)C)[C@@H](C)O [Example 65, N-alpha-[(S)-4-Carboxy-4-(19-carboxynonadecanoylamino)butyryl]-[Glu14,Arg17,Ala25,Pro26,Ser28,Ser29,His35]-pramlintide] ({C20 diacid-γGlu}-KCNTATCATQRLAEFLRHSSNNFGAPLSSTNVGSHTY-NH2; disulfide 2-7) | – | >45

More lines, now with the values ahead:

ThT pH 4.0 lag time (physical stability in fibrillogenesis assay) [h] | ThT pH 4.0 lag time [h] | SMILES
>45 | >45 | CC[C@H](C)[C@H](NC(=O)[C@@H]1CCCN1C(=O)CNC(=O)[C@H](Cc1ccccc1)NC(=O)[C@H](CC(N)=O)NC(=O)[C@H](CCC(N)=O)NC(=O)[C@H](CO)NC(=O)[C@H](CO)NC(=O)[C@H](Cc1c[nH]cn1)NC(=O)[C@H](Cc1c[nH]cn1)NC(=O)[C@H](CC(C)C)NC(=O)[C@H](Cc1ccccc1)NC(=O)[C@H](CCC(=O)O)NC(=O)[C@H](C)NC(=O)[C@H](CC(C)C)NC(=O)[C@H](CCCNC(=N)N)NC(=O)[C@H](CCC(N)=O)NC(=O)[C@@H](NC(=O)[C@H](C)NC(=O)[C@@H]1CSSC[C@H](NC(=O)[C@H](CCCCN)NC(=O)CC[C@H](NC(=O)CCCCCCCCCCCCCCCCCCC(=O)O)C(=O)O)C(=O)N[C@@H](CC(N)=O)C(=O)N[C@@H]([C@@H](C)O)C(=O)N[C@@H](C)C(=O)N[C@@H]([C@@H](C)O)C(=O)N1)[C@@H](C)O)C(=O)N[C@@H](CC(C)C)C(=O)N1CCC[C@H]1C(=O)N1CCC[C@H]1C(=O)N[C@H](C(=O)N[C@@H](CC(N)=O)C(=O)N[C@H](C(=O)NCC(=O)N[C@@H](CO)C(=O)N[C@@H](CCC(N)=O)C(=O)N[C@H](C(=O)N1CCC[C@H]1C(N)=O)[C@@H](C)O)C(C)C)[C@@H](C)O [Example 136, N-alpha-[(S)-4-Carboxy-4-(19-carboxynonadecanoylamino)butyryl]-[Glu14,His17,Gln21,Gln35,Pro37]-pramlintide] ({C20 diacid-γGlu}-KCNTATCATQRLAEFLHHSSQNFGPILPPTNVGSQTP-NH2; disulfide 2-7 (inferred))
>45 | >45 | CC[C@H](C)[C@H](NC(=O)[C@@H]1CCCN1C(=O)CNC(=O)[C@H](Cc1ccccc1)NC(=O)[C@H](CC(N)=O)NC(=O)[C@H](CC(N)=O)NC(=O)[C@H](CO)NC(=O)[C@H](CO)NC(=O)[C@H](Cc1c[nH]cn1)NC(=O)[C@H](Cc1c[nH]cn1)NC(=O)[C@H](CC(C)C)NC(=O)[C@H](Cc1ccccc1)NC(=O)[C@H](CCC(=O)O)NC(=O)[C@H](C)NC(=O)[C@H](CC(C)C)NC(=O)[C@H](CCCNC(=N)N)NC(=O)[C@H](CCC(N)=O)NC(=O)[C@@H](NC(=O)[C@H](C)NC(=O)[C@@H]1CSSC[C@H](NC(=O)[C@H](CCCCN)NC(=O)CC[C@H](NC(=O)CCCCCCCCCCCCCCCCCCC(=O)O)C(=O)O)C(=O)N[C@@H](CC(N)=O)C(=O)N[C@@H]([C@@H](C)O)C(=O)N[C@@H](C)C(=O)N[C@@H]([C@@H](C)O)C(=O)N1)[C@@H](C)O)C(=O)N[C@@H](CC(C)C)C(=O)N1CCC[C@H]1C(=O)N1CCC[C@H]1C(=O)N[C@H](C(=O)N[C@@H](CC(N)=O)C(=O)N[C@H](C(=O)NCC(=O)N[C@@H](CO)C(=O)N[C@@H](CCC(N)=O)C(=O)N[C@H](C(=O)N1CCC[C@H]1C(N)=O)[C@@H](C)O)C(C)C)[C@@H](C)O [Example 135, N-alpha-[(S)-4-Carboxy-4-(19-carboxynonadecanoylamino)butyryl]-[Glu14,His17,Gln35,Pro37]-pramlintide] ({C20 diacid-γGlu}-KCNTATCATQRLAEFLHHSSNNFGPILPPTNVGSQTP-NH2; disulfide 2-7)

Source: patent US8741836B2, “Polypeptides” (Novo Nordisk A/S, priority 2011, dated 2014)
